These results are taken from US9611284B2, “Prostaglandin-bisphosphonate conjugate compounds, methods of making same, and uses thereof” (Simon Fraser University, priority 2010, dated 2017).

Structures are written as SMILES.

Data set [1] can be described thus: Uptake and release of radiolabelled conjugate 8, tritium levels in long bones. In kind it is in vivo, female Sprauge-Dawley rats. As to conditions: rat, 5 mg/kg intravenous. The procedure:
Uptake and Release of Conjugate 8: A solution was prepared of carbamate conjugate 8 (specific activity=15.4 mCi/mmol) in PBS. The conjugate was administered intravenously to female Sprauge-Dawley rats at 5 mg/kg. Triplicate sets of rats were euthanized at 1, 7, 14 and 28 days and tritium levels in bone were measured by incineration of the long bones in a biological oxidizer. After an initial 1 day uptake of 9.4%, 5.6% of the initial dose remained after 14 days.

A short description of data set [2]: Chemical stability of conjugate 8 in 0.1 N NaOH. In kind it is physicochemical. Particulars: room temperature, 24 hours.

Regarding `CCOC(=O)CCCCCCN1C(=O)CC[C@@H]1/C=C/[C@@H](OC(=O)NCCCC(O)(P(=O)(O)O)P(=O)(O)O)C(F)(F)c1ccccc1` [Conjugate 8], the “% of Initial 3H Dose Remaining” value in data set [1] (1 day) is given as 9.4%; in data set [1] (7 days) it was 8.0%; in data set [1] (14 days, 5 mg/kg) it was 6.2%; in data set [1] (28 days), 5.6%. The “hydrolysis of the carbamate coupling” value in data set [2] is “not hydrolyzed”. The “hydrolysis of the ethyl ester” value in data set [2] is recorded as “essentially quantitatively”.
